Here are results for 20 compounds from ChEMBL document CHEMBL3853357, “Discovery of a Series of 5,11-Dihydro-6H-benzo[e]pyrimido[5,4-b][1,4]diazepin-6-ones as Selective PI3K-δ/γ Inhibitors” (ACS Med Chem Lett, 2016).

The source made the active and inactive calls. The calls are words filed in the database; no cut-off is given here.

Assay [1] has as its target Phosphatidylinositol 4,5-bisphosphate 3-kinase catalytic subunit gamma isoform (Homo sapiens, UniProt P48736). Nature of the assay: Inhibition of human PI3Kgamma (S144 to A1102 residues) expressed in mammalian expression system incubated for 60 mins by ADAPTA assay.
Assay [2] addresses T1, Phosphatidylinositol 4,5-bisphosphate 3-kinase catalytic subunit delta isoform (Homo sapiens, UniProt O00329).
T1 sequence (O00329 whole entry): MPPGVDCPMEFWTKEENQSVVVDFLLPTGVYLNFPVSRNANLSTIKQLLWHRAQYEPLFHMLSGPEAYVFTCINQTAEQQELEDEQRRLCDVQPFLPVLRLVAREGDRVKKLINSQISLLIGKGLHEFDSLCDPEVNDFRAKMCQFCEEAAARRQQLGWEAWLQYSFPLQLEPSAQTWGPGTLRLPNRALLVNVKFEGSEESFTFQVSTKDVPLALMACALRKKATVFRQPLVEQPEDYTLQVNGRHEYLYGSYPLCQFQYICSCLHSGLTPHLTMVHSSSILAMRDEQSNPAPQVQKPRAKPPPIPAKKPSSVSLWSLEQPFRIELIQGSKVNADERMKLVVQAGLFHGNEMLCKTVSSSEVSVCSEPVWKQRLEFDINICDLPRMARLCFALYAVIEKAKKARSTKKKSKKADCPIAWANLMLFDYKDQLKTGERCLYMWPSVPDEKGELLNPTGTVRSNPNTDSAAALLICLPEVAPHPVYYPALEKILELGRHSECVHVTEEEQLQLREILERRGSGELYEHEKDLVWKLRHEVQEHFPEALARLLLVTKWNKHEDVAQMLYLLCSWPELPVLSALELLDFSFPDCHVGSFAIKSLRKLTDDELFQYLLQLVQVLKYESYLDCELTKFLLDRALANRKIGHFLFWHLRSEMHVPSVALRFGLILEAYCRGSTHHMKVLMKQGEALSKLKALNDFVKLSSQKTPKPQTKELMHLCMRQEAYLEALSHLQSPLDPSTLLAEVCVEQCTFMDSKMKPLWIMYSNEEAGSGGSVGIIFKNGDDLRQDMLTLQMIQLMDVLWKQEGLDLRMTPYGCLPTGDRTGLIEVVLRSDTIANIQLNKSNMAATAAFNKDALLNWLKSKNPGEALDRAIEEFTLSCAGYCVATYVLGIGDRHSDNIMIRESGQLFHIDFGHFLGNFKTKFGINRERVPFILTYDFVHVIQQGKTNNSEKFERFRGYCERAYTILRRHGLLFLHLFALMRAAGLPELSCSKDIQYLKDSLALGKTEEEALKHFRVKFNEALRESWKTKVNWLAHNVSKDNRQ
Kind of assay: Inhibition of human PI3Kdelta (R108 to Q1044 residues) expressed in mammalian expression system incubated for 60 mins by ADAPTA assay.

The target in the next assay is T2, Aurora kinase A (Homo sapiens, UniProt O14965).
T2 sequence (O14965 whole entry): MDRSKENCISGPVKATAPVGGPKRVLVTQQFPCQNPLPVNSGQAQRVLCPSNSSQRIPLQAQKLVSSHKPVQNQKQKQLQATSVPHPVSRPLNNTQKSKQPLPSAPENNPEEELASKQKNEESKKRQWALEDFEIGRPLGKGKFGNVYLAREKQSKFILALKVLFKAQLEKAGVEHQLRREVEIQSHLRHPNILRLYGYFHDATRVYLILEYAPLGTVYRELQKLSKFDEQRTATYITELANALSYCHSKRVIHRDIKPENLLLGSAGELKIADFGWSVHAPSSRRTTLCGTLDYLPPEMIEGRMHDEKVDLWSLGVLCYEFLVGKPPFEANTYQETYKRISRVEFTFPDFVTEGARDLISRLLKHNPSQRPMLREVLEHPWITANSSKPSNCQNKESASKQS
Nature of the assay: Inhibition of human Aurora kinase A (E122 to K401 residues) expressed in mammalian expression system by Z'LYTE assay.

A further assay has as its target Aurora kinase B (Homo sapiens, UniProt Q96GD4). Kind of assay: Inhibition of human Aurora kinase B (D25 to A303 residues) expressed in mammalian expression system by Z'LYTE assay.
A short description of assay [3]: (§1) Antiproliferative activity against patient-derived IgM-stimulated CLL cells after 3 days by CellTiter-Glo assay. The conditions noted are these: Homo sapiens, 72 h. Format: functional, cell-based. For orientation: In ATP-based viability assays light output follows the ATP content of the culture.
Assay [4] can be described thus: Antiproliferative activity against human MV4-11 cells after 3 days by CellTiter-Glo assay. Format: functional, cell-based. As to conditions: MV4-11, 72 h.
Assay [5] is described as follows: Antiproliferative activity against human MOLT4 cells after 3 days by CellTiter-Glo assay. Format: functional, cell-based. As to conditions: MOLT-4, 72 h.
Assay [6] concerns the target Phosphatidylinositol 4,5-bisphosphate 3-kinase catalytic subunit beta isoform (Homo sapiens) (UniProt P42338). Kind of assay: Inhibition of p110beta in HMEC assessed as reduction in Akt phosphorylation at Thr-308 residue at 0.01 to 1 uM after 1 hr by Western blot analysis.
For assay [7] the target is unchanged. Nature of the assay: Inhibition of p110beta in HMEC assessed as reduction in S6RP phosphorylation at Ser-235/236 residue at 0.01 to 1 uM after 1 hr by Western blot analysis. (In general: Immunoblotting shows a protein as a band on a membrane.)
The nature of assay [8]: Antiproliferative activity against human Jurkat cells after 3 days by CellTiter-Glo assay. Type of assay: functional, cell-based. As to conditions: 72 h.
Assay [9] in a line: Antiproliferative activity against human Loucy cells after 3 days by CellTiter-Glo assay. Type of assay: functional, cell-based. As to conditions: 72 h.
Assay [10] has as its target Phosphatidylinositol 4,5-bisphosphate 3-kinase catalytic subunit beta isoform (Homo sapiens) (UniProt P42338). Nature of the assay: Inhibition of p110beta in HMEC assessed as reduction in Akt phosphorylation at Ser-473 residue at 0.01 to 1 uM after 1 hr by Western blot analysis.
A short description of assay [11]: Antiproliferative activity against human MOLM14 cells after 3 days by CellTiter-Glo assay. Type of assay: functional, cell-based. As to conditions: MOLM-14, 72 h.
In another assay the test system is CLL. The description is as §1. Format: functional, cell-based. As to conditions: Homo sapiens.
Assay [12] addresses T3, Phosphatidylinositol 5-phosphate 4-kinase type-2 gamma (Homo sapiens) (UniProt Q8TBX8).
T3 sequence (whole entry): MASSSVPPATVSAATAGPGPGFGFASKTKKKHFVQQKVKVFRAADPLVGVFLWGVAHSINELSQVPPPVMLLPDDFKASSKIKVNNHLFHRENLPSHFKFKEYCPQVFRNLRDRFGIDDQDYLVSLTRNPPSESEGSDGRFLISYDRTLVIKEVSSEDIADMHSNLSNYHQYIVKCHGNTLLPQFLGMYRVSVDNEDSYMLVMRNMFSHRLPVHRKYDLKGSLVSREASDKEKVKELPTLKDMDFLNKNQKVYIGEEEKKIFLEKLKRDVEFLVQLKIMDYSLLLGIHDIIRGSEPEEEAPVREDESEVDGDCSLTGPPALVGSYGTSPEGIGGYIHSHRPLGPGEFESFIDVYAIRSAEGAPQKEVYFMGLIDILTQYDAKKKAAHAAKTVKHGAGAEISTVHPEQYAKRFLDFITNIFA
Kind of assay: Inhibition of human PIP5K2C (M1 to A421 residues) expressed at 1 uM.

Aurora kinase B, sequence (Q96GD4 whole entry, the tested form may be a part): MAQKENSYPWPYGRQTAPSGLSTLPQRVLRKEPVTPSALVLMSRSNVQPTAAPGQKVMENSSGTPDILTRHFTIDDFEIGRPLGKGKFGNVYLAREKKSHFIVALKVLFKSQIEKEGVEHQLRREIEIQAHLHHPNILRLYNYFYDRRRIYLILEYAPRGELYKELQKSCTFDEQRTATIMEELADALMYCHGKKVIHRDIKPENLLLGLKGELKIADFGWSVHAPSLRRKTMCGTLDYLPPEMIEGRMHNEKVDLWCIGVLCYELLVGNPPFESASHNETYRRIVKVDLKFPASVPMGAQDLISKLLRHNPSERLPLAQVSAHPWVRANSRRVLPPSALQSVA
Phosphatidylinositol 4,5-bisphosphate 3-kinase catalytic subunit beta isoform (Homo sapiens), sequence (P42338 whole entry, looked up, canonical isoform): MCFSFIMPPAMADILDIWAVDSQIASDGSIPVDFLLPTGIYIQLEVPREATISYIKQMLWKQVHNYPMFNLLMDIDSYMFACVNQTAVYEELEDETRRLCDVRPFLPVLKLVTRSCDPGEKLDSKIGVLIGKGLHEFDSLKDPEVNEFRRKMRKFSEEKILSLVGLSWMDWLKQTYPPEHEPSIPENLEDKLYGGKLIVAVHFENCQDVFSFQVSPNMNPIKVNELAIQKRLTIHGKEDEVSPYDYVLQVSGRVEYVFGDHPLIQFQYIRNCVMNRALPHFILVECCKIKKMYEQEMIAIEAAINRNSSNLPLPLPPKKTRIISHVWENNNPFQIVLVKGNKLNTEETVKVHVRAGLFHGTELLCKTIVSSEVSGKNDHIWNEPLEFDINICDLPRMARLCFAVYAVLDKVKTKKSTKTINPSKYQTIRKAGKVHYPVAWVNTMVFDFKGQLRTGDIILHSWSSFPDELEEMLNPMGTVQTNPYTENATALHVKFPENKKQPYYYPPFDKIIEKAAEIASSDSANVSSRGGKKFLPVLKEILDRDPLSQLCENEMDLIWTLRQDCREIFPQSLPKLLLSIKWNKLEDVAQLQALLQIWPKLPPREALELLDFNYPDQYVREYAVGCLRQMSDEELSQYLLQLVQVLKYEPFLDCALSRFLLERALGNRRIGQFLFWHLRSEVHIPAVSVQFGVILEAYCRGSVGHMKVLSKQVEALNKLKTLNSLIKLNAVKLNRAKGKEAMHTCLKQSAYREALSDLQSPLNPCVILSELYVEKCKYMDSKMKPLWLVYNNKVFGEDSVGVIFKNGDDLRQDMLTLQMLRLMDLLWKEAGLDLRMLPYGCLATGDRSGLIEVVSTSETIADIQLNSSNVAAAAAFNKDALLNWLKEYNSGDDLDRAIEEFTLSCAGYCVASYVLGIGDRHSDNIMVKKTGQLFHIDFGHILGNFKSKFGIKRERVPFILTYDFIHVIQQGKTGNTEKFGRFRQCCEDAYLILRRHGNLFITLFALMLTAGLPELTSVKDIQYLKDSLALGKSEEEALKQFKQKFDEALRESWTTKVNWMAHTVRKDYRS
Phosphatidylinositol 4,5-bisphosphate 3-kinase catalytic subunit gamma isoform, sequence (P48736 whole entry, the tested form may be a part, canonical isoform): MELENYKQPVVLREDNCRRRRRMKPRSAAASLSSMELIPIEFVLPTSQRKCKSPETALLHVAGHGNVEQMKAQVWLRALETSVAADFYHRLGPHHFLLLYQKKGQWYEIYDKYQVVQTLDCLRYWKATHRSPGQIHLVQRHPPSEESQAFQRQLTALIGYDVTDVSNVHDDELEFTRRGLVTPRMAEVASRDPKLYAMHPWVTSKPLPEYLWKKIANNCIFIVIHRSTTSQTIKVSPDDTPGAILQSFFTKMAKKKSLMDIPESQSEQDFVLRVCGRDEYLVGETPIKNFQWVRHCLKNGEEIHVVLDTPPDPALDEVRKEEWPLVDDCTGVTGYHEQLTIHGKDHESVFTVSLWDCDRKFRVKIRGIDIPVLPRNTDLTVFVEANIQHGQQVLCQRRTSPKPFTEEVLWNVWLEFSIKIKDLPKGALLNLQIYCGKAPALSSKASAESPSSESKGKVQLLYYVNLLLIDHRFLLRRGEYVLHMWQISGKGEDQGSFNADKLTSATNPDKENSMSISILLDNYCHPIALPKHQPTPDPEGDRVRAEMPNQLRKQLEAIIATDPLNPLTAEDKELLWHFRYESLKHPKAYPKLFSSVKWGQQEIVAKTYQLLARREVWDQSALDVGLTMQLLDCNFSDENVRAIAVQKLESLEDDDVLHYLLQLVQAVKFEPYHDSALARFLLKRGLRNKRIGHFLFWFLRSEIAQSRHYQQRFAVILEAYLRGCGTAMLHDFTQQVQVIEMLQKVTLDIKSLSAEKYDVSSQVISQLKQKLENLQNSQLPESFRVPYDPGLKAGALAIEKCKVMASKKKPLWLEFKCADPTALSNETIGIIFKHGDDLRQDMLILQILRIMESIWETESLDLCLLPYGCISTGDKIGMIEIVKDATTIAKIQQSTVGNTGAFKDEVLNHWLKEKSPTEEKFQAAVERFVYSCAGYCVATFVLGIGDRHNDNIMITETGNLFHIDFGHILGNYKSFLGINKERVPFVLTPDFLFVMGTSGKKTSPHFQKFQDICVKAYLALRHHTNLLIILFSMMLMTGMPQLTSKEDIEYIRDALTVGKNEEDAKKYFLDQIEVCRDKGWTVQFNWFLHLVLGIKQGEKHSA

One may read the IC50 as the concentration at which inhibition is half-maximal. Read a high IC50 as lower potency. As to `Cc1cc(S(N)(=O)=O)ccc1Nc1ncc2c(n1)N(C)c1ccccc1C(=O)N2C`, the half-inhibitory concentration (IC50) in [1] worked out at 2400 nM; in assay [2] it was 820 nM; against Aurora kinase A, 4900 nM; against Aurora kinase B, 9400 nM.
Regarding `C=CC(=O)N1CCN(S(=O)(=O)c2ccc(Nc3ncc4c(n3)N(C)c3ccc(C)cc3C(=O)N4C)cc2)CC1`, the IC50 is 110 nM in assay [1] and 230 nM in assay [2].
Take `CN1C(=O)c2ccccc2N(C)c2nc(Nc3cccc(S(N)(=O)=O)c3)ncc21`: the IC50 in assay [1] came out at 4.3 nM; in [2], 4.1 nM; against Aurora kinase A it was 2.1 nM; against Aurora kinase B it was 4.6 nM.
For the compound `CC[C@H](Nc1ncnc2[nH]cnc12)c1nc2cccc(F)c2c(=O)n1-c1ccccc1` [IDELALISIB], the IC50 in assay [3] is above 10000 nM.
Take `C[C@H](Nc1ncnc2nc[nH]c12)c1cc2cccc(Cl)c2c(=O)n1-c1ccccc1` [DUVELISIB]: the IC50 in assay [3] is above 10000 nM; in [4], 4400 nM; in assay [5], 2300 nM; in assay [8] it was 1900 nM; in assay [9] it was 980 nM; in [11], 1200 nM. Also, the inhibition entry in assay [6], in assay [7] and in assay [10] was “Active” each time.
`Cc1ccc2c(c1)C(=O)N(C)c1cnc(Nc3ccc(S(N)(=O)=O)cc3)nc1N2C`: the IC50 in assay [1] stood at 20 nM; in assay [2] it was 30 nM; against Aurora kinase A, 16 nM; at Aurora kinase B, 4.2 nM.
`Cc1ccc2c(c1)C(=O)N(C)c1cnc(Nc3ccc(S(=O)(=O)N4CCC(O)CC4)cc3)nc1N2C`: the IC50 in assay [1] is 58 nM; in assay [2], 41 nM.
The matching figures for `C=CC(=O)NC1CCN(S(=O)(=O)c2ccc(Nc3ncc4c(n3)N(C)c3ccc(C)cc3C(=O)N4C)cc2)CC1`: 49 nM and 120 nM.
Turning to `C=CC(=O)Nc1cccc(NS(=O)(=O)c2ccc(Nc3ncc4c(n3)N(C)c3ccc(C)cc3C(=O)N4C)cc2)c1`, the half-inhibitory concentration (IC50) is 340 nM in [1] and 440 nM in [2].
The matching figures for `Cc1ccc2c(c1)C(=O)N(C)c1cnc(Nc3ccc(S(=O)(=O)N4CCN(C)CC4)cc3)nc1N2C`: 3300 nM and 2600 nM.
`Cc1ccc2c(c1)C(=O)N(C)c1cnc(Nc3cccc(S(=O)(=O)N4CCC(O)CC4)c3)nc1N2C`: the IC50 in [3] was above 10000 nM; in assay [4], 620 nM; in assay [1], 6.5 nM; in assay [2] it was 2.1 nM; in assay [5], 1300 nM; in assay [8], 1400 nM. The 50% inhibitory concentration (IC50) worked out at 350 nM in assay [9] and 1000 nM in assay [11].
Consider `Cc1ccc2c(c1)C(=O)N(C)c1cnc(Nc3cccc(S(=O)(=O)N4CCN(C)CC4)c3)nc1N2C`, for which the IC50 in assay [1] was found to be 560 nM; in assay [2] it was 51 nM.
In the case of `C=CC(=O)NC1CCN(S(=O)(=O)c2cccc(Nc3ncc4c(n3)N(C)c3ccc(C)cc3C(=O)N4C)c2)CC1`, the IC50 in assay [1] amounted to 120 nM; in [2], 20 nM; on Aurora kinase A, 350 nM.
Take `CCC(=O)N1CCN(S(=O)(=O)c2cccc(Nc3ncc4c(n3)N(C)c3ccc(C)cc3C(=O)N4C)c2)CC1`: the concentration for half-maximal inhibition (IC50) in assay [3] was found to be 3000 nM; in assay [4], 960 nM; in assay [1], 11 nM; in assay [2], 1.7 nM; in assay [5], 1200 nM; in assay [8], 1600 nM. Also, the half-maximal inhibitory concentration (IC50) stood at 720 nM in assay [9] and 610 nM in [11]. In the assay on CLL, the Activity entry is “Dose-dependent effect”.
Regarding `CN1C(=O)c2ccccc2N(C)c2nc(Nc3ccc(S(N)(=O)=O)cc3)ncc21`, the IC50 is 15 nM in assay [1], 49 nM in assay [2], 4.8 nM on Aurora kinase A and 13 nM at Aurora kinase B.
`C=CC(=O)N1CCN(S(=O)(=O)c2cccc(Nc3ncc4c(n3)N(C)c3ccc(C)cc3C(=O)N4C)c2)CC1`: the half-inhibitory concentration (IC50) in assay [1] came out at 2.8 nM; in [2] it was 1.5 nM; in assay [5] it was 33 nM; in [8], 166 nM. For the same compound, the inhibition result in assay [12] was “Active”.
As to `C=CC(=O)Nc1ccc(NS(=O)(=O)c2ccc(Nc3ncc4c(n3)N(C)c3ccc(C)cc3C(=O)N4C)cc2)cc1`, the IC50 in assay [1] is 310 nM; in assay [2], 96 nM.
Turning to `C=CC(=O)Nc1cccc(NS(=O)(=O)c2cccc(Nc3ncc4c(n3)N(C)c3ccc(C)cc3C(=O)N4C)c2)c1`, the IC50 was 330 nM in assay [1] and 39 nM in assay [2].
Regarding `C=CC(=O)Nc1ccc(NS(=O)(=O)c2cccc(Nc3ncc4c(n3)N(C)c3ccc(C)cc3C(=O)N4C)c2)cc1`, the IC50 was 15 nM in assay [1] and 29 nM in assay [2].
Turning to `Cc1ccc2c(c1)C(=O)N(C)c1cnc(Nc3cccc(S(N)(=O)=O)c3)nc1N2C`, the half-maximal inhibitory concentration (IC50) in assay [1] stood at 110 nM; in assay [2], 76 nM.
